Laboratory results taken from paper PMC3399817 (PLoS ONE, 2012).

What was measured:
Assay in all cases: KINOMEscan
Format in all cases: binding
[1] = target: T1, ABL1(F317I)-nonphosphorylated (Homo sapiens, UniProt P00519, F317I); conditions: 1 uM
T1 construct: purchased Ambit KINOMEscan (DiscoverX)
Procedure, shortened: (§1)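 Compounds were each tested at a single concentration of 1 μM in a binding-based kinase panel.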

ACVR2B = target: T2, ACVR2B (Homo sapiens, UniProt Q13705); conditions: 1 uM
T2 construct: purchased Ambit KINOMEscan (DiscoverX)
Procedure, shortened: as §1

ADCK3 = target: T3, ADCK3 (Homo sapiens, UniProt Q8NI60); conditions: ADCK3, 1 uM
T3 construct: purchased Ambit KINOMEscan (DiscoverX)
Procedure, shortened: as §1

ASK1 = target: T4, ASK1 (Homo sapiens, UniProt Q99683); conditions: ASK1, 1 uM
T4 construct: purchased Ambit KINOMEscan (DiscoverX)
Procedure, shortened: as §1

ASK2 = target: T5, ASK2 (Homo sapiens, UniProt O95382); conditions: ASK2, 1 uM
T5 construct: purchased Ambit KINOMEscan (DiscoverX)
Procedure, shortened: as §1

CAMK1 = target: T6, CAMK1 (Homo sapiens, UniProt Q14012); conditions: CAMK1, 1 uM
T6 construct: purchased Ambit KINOMEscan (DiscoverX)
Procedure, shortened: as §1

CDC2L2 = target: T7, CDC2L2 (Homo sapiens, UniProt Q9UQ88); conditions: CDC2L2, 1 uM
T7 construct: purchased Ambit KINOMEscan (DiscoverX)
Procedure, shortened: as §1

CDKL3 = target: T8, CDKL3 (Homo sapiens, UniProt Q8IVW4); conditions: CDKL3, 1 uM
T8 construct: purchased Ambit KINOMEscan (DiscoverX)
Procedure, shortened: as §1

CSK = target: T9, CSK (Homo sapiens, UniProt P41240); conditions: 1 uM
T9 construct: purchased Ambit KINOMEscan (DiscoverX)
Procedure, shortened: as §1

EPHA2 = target: T10, EPHA2 (Homo sapiens, UniProt P29317); conditions: EPHA2, 1 uM
T10 construct: purchased Ambit KINOMEscan (DiscoverX)
Procedure, shortened: as §1

EPHA4 = target: T11, EPHA4 (Homo sapiens, UniProt P54764); conditions: EPHA4, 1 uM
T11 construct: purchased Ambit KINOMEscan (DiscoverX)
Procedure, shortened: as §1

EPHB1 = target: T12, EPHB1 (Homo sapiens, UniProt P54762); conditions: EPHB1, 1 uM
T12 construct: purchased Ambit KINOMEscan (DiscoverX)
Procedure, shortened: as §1

ERBB4 = target: T13, ERBB4 (Homo sapiens, UniProt Q15303); conditions: ERBB4, 1 uM
T13 construct: purchased Ambit KINOMEscan (DiscoverX)
Procedure, shortened: as §1

IKK-alpha = target: T14, IKK-alpha (Homo sapiens, UniProt O15111); conditions: 1 uM
T14 construct: purchased Ambit KINOMEscan (DiscoverX)
Procedure, shortened: as §1

ITK = target: T15, ITK (Homo sapiens, UniProt Q08881); conditions: 1 uM
T15 construct: purchased Ambit KINOMEscan (DiscoverX)
Procedure, shortened: as §1

[2] = target: T16, JAK1(JH2domain-pseudokinase) (Homo sapiens, UniProt P23458); conditions: 1 uM
T16 construct: JAK1(JH2domain-pseudokinase); purchased Ambit KINOMEscan (DiscoverX)
Procedure, shortened: as §1

[3] = target: T17, JAK2(JH1domain-catalytic) (Homo sapiens, UniProt O60674); conditions: 1 uM
T17 construct: JAK2(JH1domain-catalytic); purchased Ambit KINOMEscan (DiscoverX)
Procedure, shortened: as §1

LATS1 = target: T18, LATS1 (Homo sapiens, UniProt O95835); conditions: LATS1, 1 uM
T18 construct: purchased Ambit KINOMEscan (DiscoverX)
Procedure, shortened: as §1

MAP3K4 = target: T19, MAP3K4 (Homo sapiens, UniProt Q9Y6R4); conditions: MAP3K4, 1 uM
T19 construct: purchased Ambit KINOMEscan (DiscoverX)
Procedure, shortened: as §1

MAP4K3 = target: T20, MAP4K3 (Homo sapiens, UniProt Q8IVH8); conditions: MAP4K3, 1 uM
T20 construct: purchased Ambit KINOMEscan (DiscoverX)
Procedure, shortened: as §1

MERTK = target: T21, MERTK (Homo sapiens, UniProt Q12866); conditions: 1 uM
T21 construct: purchased Ambit KINOMEscan (DiscoverX)
Procedure, shortened: as §1

MLCK = target: T22, MLCK (Homo sapiens, UniProt Q32MK0); conditions: 1 uM
T22 construct: purchased Ambit KINOMEscan (DiscoverX)
Procedure, shortened: as §1

MRCKA = target: T23, MRCKA (Homo sapiens, UniProt Q5VT25); conditions: 1 uM
T23 construct: purchased Ambit KINOMEscan (DiscoverX)
Procedure, shortened: as §1

NDR2 = target: T24, NDR2 (Homo sapiens, UniProt Q9Y2H1); conditions: NDR2, 1 uM
T24 construct: purchased Ambit KINOMEscan (DiscoverX)
Procedure, shortened: as §1

PCTK1 = target: T25, PCTK1 (Homo sapiens, UniProt Q00536); conditions: PCTK1, 1 uM
T25 construct: purchased Ambit KINOMEscan (DiscoverX)
Procedure, shortened: as §1

PDGFRB = target: T26, PDGFRB (Homo sapiens, UniProt P09619); conditions: 1 uM
T26 construct: purchased Ambit KINOMEscan (DiscoverX)
Procedure, shortened: as §1

PDPK1 = target: T27, PDPK1 (Homo sapiens, UniProt O15530); conditions: PDPK1, 1 uM
T27 construct: purchased Ambit KINOMEscan (DiscoverX)
Procedure, shortened: as §1

PIK3CA = target: T28, PIK3CA (Homo sapiens, UniProt P42336); conditions: 1 uM
T28 construct: purchased Ambit KINOMEscan (DiscoverX)
Procedure, shortened: as §1

PIK3CA(C420R) = target: T29, PIK3CA(C420R) (Homo sapiens, UniProt P42336, C420R); conditions: 1 uM
T29 construct: purchased Ambit KINOMEscan (DiscoverX)
Procedure, shortened: as §1

PIM3 = target: T30, PIM3 (Homo sapiens, UniProt Q86V86); conditions: PIM3, 1 uM
T30 construct: purchased Ambit KINOMEscan (DiscoverX)
Procedure, shortened: as §1

PLK3 = target: T31, PLK3 (Homo sapiens, UniProt Q9H4B4); conditions: PLK3, 1 uM
T31 construct: purchased Ambit KINOMEscan (DiscoverX)
Procedure, shortened: as §1

PRKD3 = target: T32, PRKD3 (Homo sapiens, UniProt O94806); conditions: PRKD3, 1 uM
T32 construct: purchased Ambit KINOMEscan (DiscoverX)
Procedure, shortened: as §1

RAF1 = target: T33, RAF1 (Homo sapiens, UniProt P04049); conditions: RAF1, 1 uM
T33 construct: purchased Ambit KINOMEscan (DiscoverX)
Procedure, shortened: as §1

RIOK1 = target: T34, RIOK1 (Homo sapiens, UniProt Q9BRS2); conditions: RIOK1, 1 uM
T34 construct: purchased Ambit KINOMEscan (DiscoverX)
Procedure, shortened: as §1

TAO1 = target: T35, TAO1 (Homo sapiens, UniProt Q9UL54); conditions: TAO1, 1 uM
T35 construct: purchased Ambit KINOMEscan (DiscoverX)
Procedure, shortened: as §1

TGFBR1 = target: T36, TGFBR1 (Homo sapiens, UniProt P36897); conditions: TGFBR1, 1 uM
T36 construct: purchased Ambit KINOMEscan (DiscoverX)
Procedure, shortened: as §1

[4] = target: T37, TYK2(JH2domain-pseudokinase) (Homo sapiens, UniProt P29597); conditions: 1 uM
T37 construct: TYK2(JH2domain-pseudokinase); purchased Ambit KINOMEscan (DiscoverX)
Procedure, shortened: as §1

TYRO3 = target: T38, TYRO3 (Homo sapiens, UniProt Q06418); conditions: TYRO3, 1 uM
T38 construct: purchased Ambit KINOMEscan (DiscoverX)
Procedure, shortened: as §1

ULK1 = target: T39, ULK1 (Homo sapiens, UniProt O75385); conditions: ULK1, 1 uM
T39 construct: purchased Ambit KINOMEscan (DiscoverX)
Procedure, shortened: as §1

T6 sequence (Q14012 whole entry): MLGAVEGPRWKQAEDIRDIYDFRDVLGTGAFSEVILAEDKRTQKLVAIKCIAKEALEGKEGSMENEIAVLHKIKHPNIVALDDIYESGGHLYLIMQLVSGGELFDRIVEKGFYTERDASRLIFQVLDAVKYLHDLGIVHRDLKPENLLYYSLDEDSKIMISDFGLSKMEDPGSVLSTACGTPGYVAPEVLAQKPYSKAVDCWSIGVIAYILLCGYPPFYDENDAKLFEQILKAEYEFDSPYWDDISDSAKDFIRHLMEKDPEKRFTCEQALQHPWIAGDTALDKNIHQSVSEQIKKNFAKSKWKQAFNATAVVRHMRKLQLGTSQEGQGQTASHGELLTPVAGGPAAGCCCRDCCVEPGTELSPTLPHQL
T27 sequence (O15530 whole entry): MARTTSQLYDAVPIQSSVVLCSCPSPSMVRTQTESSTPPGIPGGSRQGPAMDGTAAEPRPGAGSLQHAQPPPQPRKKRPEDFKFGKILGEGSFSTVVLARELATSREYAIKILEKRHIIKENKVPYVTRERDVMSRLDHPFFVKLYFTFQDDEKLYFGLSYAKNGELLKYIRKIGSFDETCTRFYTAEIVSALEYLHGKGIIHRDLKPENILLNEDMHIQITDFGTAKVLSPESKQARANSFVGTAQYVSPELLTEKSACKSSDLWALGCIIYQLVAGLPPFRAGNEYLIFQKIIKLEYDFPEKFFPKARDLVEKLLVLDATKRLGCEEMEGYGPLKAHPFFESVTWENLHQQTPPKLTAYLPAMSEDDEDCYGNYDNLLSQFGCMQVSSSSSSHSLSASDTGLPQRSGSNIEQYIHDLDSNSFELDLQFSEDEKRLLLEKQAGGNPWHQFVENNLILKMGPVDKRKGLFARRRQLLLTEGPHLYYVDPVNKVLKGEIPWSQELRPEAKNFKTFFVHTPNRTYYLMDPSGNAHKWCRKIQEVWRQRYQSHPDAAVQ
T4 sequence (Q99683 whole entry): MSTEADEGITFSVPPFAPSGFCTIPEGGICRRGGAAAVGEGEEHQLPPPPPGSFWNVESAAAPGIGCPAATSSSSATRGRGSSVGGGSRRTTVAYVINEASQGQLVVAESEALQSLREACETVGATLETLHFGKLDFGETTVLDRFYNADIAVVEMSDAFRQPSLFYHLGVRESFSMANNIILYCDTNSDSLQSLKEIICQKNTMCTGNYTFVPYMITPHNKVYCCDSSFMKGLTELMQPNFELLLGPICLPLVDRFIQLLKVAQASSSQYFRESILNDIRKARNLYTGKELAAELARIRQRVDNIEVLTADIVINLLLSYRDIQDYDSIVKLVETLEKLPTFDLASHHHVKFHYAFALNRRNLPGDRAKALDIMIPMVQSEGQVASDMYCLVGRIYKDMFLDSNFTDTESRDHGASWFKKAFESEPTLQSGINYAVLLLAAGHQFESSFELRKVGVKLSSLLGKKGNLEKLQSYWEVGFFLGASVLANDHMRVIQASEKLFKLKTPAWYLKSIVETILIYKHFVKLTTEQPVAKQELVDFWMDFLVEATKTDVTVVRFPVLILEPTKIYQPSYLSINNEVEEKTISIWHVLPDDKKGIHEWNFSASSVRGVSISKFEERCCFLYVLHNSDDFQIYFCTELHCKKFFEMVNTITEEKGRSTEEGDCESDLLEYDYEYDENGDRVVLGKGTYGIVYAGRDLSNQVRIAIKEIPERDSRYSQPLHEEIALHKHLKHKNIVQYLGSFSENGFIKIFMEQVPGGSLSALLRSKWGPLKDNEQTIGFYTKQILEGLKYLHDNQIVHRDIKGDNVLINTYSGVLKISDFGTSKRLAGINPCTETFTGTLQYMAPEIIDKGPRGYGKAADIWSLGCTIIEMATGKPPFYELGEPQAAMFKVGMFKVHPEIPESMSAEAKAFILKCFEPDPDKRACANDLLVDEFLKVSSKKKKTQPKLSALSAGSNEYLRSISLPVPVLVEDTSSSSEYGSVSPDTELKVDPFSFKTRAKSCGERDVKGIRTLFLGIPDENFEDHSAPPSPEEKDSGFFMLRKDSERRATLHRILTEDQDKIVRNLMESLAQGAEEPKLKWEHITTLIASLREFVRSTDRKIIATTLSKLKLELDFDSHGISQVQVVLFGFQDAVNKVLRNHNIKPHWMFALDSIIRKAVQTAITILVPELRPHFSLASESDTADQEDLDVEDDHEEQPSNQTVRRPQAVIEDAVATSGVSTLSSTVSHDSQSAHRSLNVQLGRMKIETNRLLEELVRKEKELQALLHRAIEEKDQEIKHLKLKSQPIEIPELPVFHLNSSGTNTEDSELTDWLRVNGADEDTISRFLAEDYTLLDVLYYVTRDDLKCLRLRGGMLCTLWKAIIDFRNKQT
T21 sequence (Q12866 21-999): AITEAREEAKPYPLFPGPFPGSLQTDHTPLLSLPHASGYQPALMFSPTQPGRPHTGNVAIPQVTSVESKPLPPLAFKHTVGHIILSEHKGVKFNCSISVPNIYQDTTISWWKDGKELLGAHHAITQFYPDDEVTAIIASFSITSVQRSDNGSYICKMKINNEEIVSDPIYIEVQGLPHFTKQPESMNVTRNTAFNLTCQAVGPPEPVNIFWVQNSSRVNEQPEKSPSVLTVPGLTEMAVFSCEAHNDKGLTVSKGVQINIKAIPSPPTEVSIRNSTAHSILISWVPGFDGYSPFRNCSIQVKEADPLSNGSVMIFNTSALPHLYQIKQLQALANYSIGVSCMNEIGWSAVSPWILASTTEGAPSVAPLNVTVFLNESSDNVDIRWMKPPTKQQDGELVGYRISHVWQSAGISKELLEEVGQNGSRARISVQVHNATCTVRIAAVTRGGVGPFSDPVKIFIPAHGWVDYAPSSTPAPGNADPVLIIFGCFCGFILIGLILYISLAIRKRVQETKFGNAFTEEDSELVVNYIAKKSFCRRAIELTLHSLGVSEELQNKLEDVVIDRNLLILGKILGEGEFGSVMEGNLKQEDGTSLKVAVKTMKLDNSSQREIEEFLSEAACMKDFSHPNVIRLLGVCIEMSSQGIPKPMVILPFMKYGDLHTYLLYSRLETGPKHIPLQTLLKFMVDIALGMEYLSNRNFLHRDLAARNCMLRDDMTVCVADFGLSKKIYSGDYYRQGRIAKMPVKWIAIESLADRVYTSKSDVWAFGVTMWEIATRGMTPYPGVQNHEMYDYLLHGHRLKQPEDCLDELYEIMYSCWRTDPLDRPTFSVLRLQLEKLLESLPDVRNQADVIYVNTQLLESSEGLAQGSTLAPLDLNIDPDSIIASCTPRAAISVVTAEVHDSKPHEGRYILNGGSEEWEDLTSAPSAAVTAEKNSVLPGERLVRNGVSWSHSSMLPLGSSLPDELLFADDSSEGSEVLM
T16 sequence (P23458 583-855 limits assumed): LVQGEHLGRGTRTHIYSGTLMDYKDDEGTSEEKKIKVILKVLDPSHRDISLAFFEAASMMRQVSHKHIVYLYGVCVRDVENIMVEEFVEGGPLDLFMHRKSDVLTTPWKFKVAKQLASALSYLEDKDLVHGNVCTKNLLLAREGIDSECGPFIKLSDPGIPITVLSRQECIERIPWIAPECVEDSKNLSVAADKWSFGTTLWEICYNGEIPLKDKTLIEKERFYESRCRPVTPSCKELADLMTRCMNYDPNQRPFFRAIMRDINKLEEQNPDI
T2 sequence (Q13705 19-512): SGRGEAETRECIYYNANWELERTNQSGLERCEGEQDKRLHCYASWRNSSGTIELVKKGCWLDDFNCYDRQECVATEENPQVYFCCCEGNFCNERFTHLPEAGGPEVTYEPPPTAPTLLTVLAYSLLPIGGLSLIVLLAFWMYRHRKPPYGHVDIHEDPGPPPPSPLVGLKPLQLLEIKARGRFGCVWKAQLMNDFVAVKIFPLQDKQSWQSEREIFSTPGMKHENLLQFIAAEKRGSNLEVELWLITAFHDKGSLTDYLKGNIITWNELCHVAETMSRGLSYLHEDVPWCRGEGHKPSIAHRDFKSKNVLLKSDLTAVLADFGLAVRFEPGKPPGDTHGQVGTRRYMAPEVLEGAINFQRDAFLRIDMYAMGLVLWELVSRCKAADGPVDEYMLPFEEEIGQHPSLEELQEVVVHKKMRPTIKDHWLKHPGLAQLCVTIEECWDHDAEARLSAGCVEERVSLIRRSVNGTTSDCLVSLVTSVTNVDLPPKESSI
T20 sequence (Q8IVH8 whole entry): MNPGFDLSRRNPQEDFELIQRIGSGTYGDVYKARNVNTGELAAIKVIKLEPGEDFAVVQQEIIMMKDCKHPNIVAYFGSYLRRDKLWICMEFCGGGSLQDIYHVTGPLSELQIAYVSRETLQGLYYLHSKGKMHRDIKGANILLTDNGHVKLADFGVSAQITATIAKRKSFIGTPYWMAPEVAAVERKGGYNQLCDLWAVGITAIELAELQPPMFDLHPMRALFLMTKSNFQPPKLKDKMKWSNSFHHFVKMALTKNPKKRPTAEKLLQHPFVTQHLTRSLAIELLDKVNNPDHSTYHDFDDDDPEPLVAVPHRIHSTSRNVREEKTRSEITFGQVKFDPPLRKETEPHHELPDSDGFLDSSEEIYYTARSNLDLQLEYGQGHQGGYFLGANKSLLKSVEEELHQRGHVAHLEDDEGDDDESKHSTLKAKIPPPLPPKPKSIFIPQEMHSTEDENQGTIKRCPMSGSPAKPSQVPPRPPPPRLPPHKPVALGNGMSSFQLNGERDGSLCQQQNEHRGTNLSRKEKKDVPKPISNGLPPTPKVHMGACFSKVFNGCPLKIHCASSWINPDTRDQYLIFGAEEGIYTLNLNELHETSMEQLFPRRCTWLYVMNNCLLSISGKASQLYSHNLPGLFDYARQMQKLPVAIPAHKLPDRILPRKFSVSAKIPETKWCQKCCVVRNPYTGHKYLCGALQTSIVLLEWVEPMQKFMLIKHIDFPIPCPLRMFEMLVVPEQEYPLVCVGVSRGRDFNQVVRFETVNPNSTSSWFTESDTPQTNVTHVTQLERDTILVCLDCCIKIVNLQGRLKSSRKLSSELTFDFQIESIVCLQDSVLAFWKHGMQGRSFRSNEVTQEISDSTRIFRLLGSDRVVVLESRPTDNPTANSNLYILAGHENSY

Row | Compound | % binding compared to no inhibitor control [1] [%] | % binding compared to no inhibitor control (ACVR2B) [%] | % binding compared to no inhibitor control (ADCK3) [%] | % binding compared to no inhibitor control (ASK1) [%] | % binding compared to no inhibitor control (ASK2) [%] | % binding compared to no inhibitor control (CAMK1) [%] | % binding compared to no inhibitor control (CDC2L2) [%] | % binding compared to no inhibitor control (CDKL3) [%] | % binding compared to no inhibitor control (CSK) [%] | % binding compared to no inhibitor control (EPHA2) [%] | % binding compared to no inhibitor control (EPHA4) [%] | % binding compared to no inhibitor control (EPHB1) [%] | % binding compared to no inhibitor control (ERBB4) [%] | % binding compared to no inhibitor control (IKK-alpha) [%] | % binding compared to no inhibitor control (ITK) [%] | % binding compared to no inhibitor control [2] [%] | % binding compared to no inhibitor control [3] [%] | % binding compared to no inhibitor control (LATS1) [%] | % binding compared to no inhibitor control (MAP3K4) [%] | % binding compared to no inhibitor control (MAP4K3) [%] | further results
1 | COc1ccc(-c2cc3nccn3c(Nc3ncccc3C(N)=O)n2)cc1OC.Cl.Cl [BAY61-3606, 2-[7-(3,4-dimethoxyphenyl)-imidazo [1,2-c]pyrimidin-5-ylamino] nicotinamide dihydrochloride, reference compound] | 100 | 77 | 99 | 100 | 81 | 62 | 100 | 100 | 68 | 100 | 91 | 90 | 90 | 0.25 | 100 | 80 | 90 | 100 | 100 | 97 | % binding compared to no inhibitor control (MERTK): 78%; % binding compared to no inhibitor control (MLCK): 100%; % binding compared to no inhibitor control (MRCKA): 83%; % binding compared to no inhibitor control (NDR2): 68%; % binding compared to no inhibitor control (PCTK1): 86%; % binding compared to no inhibitor control (PDGFRB): 47%; % binding compared to no inhibitor control (PDPK1): 99%; % binding compared to no inhibitor control (PIK3CA): 92%; % binding compared to no inhibitor control (PIK3CA(C420R)): 100%; % binding compared to no inhibitor control (PIM3): 81%; % binding compared to no inhibitor control (PLK3): 37%; % binding compared to no inhibitor control (PRKD3): 37%; % binding compared to no inhibitor control (RAF1): 81%; % binding compared to no inhibitor control (RIOK1): 31%; % binding compared to no inhibitor control (TAO1): 100%; % binding compared to no inhibitor control (TGFBR1): 99%; % binding compared to no inhibitor control [4]: 9.2%; % binding compared to no inhibitor control (TYRO3): 94%; % binding compared to no inhibitor control (ULK1): 97%
2 | COc1ccccc1Nc1nc(-c2ccc(OC)c(OC)c2)cc2nccn12 [BAY derivative 6] | 100 | 100 | 87 | 100 | 100 | 100 | 100 | 100 | 99 | 89 | 92 | 100 | 100 | 100 | 100 | 1.2 | 13 | 100 | 99 | 100 | % binding compared to no inhibitor control (MERTK): 100%; % binding compared to no inhibitor control (MLCK): 100%; % binding compared to no inhibitor control (MRCKA): 79%; % binding compared to no inhibitor control (NDR2): 93%; % binding compared to no inhibitor control (PCTK1): 100%; % binding compared to no inhibitor control (PDGFRB): 67%; % binding compared to no inhibitor control (PDPK1): 100%; % binding compared to no inhibitor control (PIK3CA): 100%; % binding compared to no inhibitor control (PIK3CA(C420R)): 100%; % binding compared to no inhibitor control (PIM3): 82%; % binding compared to no inhibitor control (PLK3): 100%; % binding compared to no inhibitor control (PRKD3): 100%; % binding compared to no inhibitor control (RAF1): 100%; % binding compared to no inhibitor control (RIOK1): 95%; % binding compared to no inhibitor control (TAO1): 96%; % binding compared to no inhibitor control (TGFBR1): 99%; % binding compared to no inhibitor control [4]: 37%; % binding compared to no inhibitor control (TYRO3): 67%; % binding compared to no inhibitor control (ULK1): 100%
